# System: HEK293E cells
# Test: Multiple VPA additions, IgG batch titer by ELISA (Example 3)
# Assay type: cell-based, Human
# Settings: day 10 after transfection
# Protocol: 10 million suspension-adapted HEK293E cells were resuspended in 0.5 ml of Ex-Cell 293 HEK 293 serum-free medium with 4 mmol/l L-glutamine (Cat. No. 14571C-[…]; Lot No. 6A0093; SAFC Biosciences, Lenexa, Kans., USA, “Ex-Cell” medium; note: “Ex-Cell” medium-as used herein-refers to a medium comprising 4 mmol/l L-glutamine) in a 50-ml filter tube each (TPP AG, Trasadingen, Switzerland; Cat. No. 87050, Lot 20050174). In a separate set, 10 million suspension-adapted CHO DG44 cells were resuspended in 0.5 ml of ProCHO5 serum-free medium with 4 mmol/[…] hypoxanthine and 0.194 g/l thymidine (BioWhittaker (Lonza), Belgium; Cat. No. BE12-[…]; Lot No. 7 MB0040; “ProCHO5” medium; note: “ProCHO5” medium-as used herein-refers to a medium comprising 4 mmol/[…] hypoxanthine and 0.194 g/l thymidine) in a 50-ml filter tube each (TPP AG, Trasadingen, Switzerland; Cat. No. 87050, Lot 20050174). Then 12.5 μg plasmid DNA at a concentration of 1 μg/μl was added in each tube with the following composition 50% (6.25 μg) p-LC (SEQ ID NO: 1) 50% (6.25 μg) p-HC (SEQ ID NO: 3). Plasmid p-LC comprises the genetic information for the production of the light chain of an IgG antibody, plasmid p-HC comprises the genetic information for the production of the heavy chain of an IgG antibody. The particular vector constructs used in the present invention can also be obtained from the inventors. The inventors can be contacted via e-mail at […]. […] In short, Goat anti-human kappa light chain IgG (Biosource) was used for coating the ELISA-plates, and with AP-conjugated goat anti-human gamma chain IgG (Biosource) the synthesized IgG1 was detected. […] Absorption was measured at 405 nm against 490 nm using a microplate reader (SPECTRAmaxTM340; Molecular Devices, Palo Alto, Calif., USA).
smiles,measurement,setting,value
"CCCC(CCC)C(=O)O [VPA, valproic acid]",Batch titer,4 mmol/l VPA at day 0,193 mg/L
same,"batch titers, direct addition versus slowly increasing concentration",,statistically not different
same,Batch titer,"escalating dosage, 1 to 4 mmol/l in 1 mmol/l increments every other day",182 mg/L

# Reference: US20090023186A1, “USE OF VALPROIC ACID FOR ENHANCING PRODUCTION OF RECOMBINANT PROTEINS IN MAMMALIAN CELLS” (EXCELLGENE SA, priority 2007, published 2009)
